Reference: patent US9174942B2, “IDO inhibitors” (NewLink Genetics Corporation, priority 2008, dated 2015)

Target: T1, purified human IDO protein (Homo sapiens, UniProt P14902, E119G/P110S)
T1 construct: 6-Histidine tag (C); made in house; host or cells: E. coli M15(pREP4) transformed with pQE70-hIDO
Test: Enzymatic IDO assay (kynurenine formation, absorbance at 480 nm)
Assay type: biochemical
Conditions: recombinant human IDO, 200 μM L-tryptophan, pH 6.5; reported in ranges
Method: The inhibitors were initially diluted in DMSO at 100 mM and were diluted in potassium phosphate 50 mM, added to the reaction mixture at final concentrations raging from 1 mM to 5 nM and preincubated with the enzyme for 5 min at 25° C. The reaction was started by addition of L-tryptophan to 200 μM and incubated 15 min at 37° C. The reaction was stopped by addition of 0.5 vol of 30% trichloroacetic acid and incubated 30 min at 60° C. to hydrolyze N-formylkynurenine to kynurenine. The reaction was centrifuged at 3400 g for 5 min to remove precipitated protein and the supernatant was reacted with 2% (w/v) of p-dimethylaminobenzaldehyde in acetic acid. The reaction was incubated 10 min at 25° C. and read at 480 nm in a spectrophotometer. […] Nonlinear regressions and determination of the IC50 values were performed using the GraphPad Prism 4 software.

T1 sequence (P14902 whole entry P110S/E119G): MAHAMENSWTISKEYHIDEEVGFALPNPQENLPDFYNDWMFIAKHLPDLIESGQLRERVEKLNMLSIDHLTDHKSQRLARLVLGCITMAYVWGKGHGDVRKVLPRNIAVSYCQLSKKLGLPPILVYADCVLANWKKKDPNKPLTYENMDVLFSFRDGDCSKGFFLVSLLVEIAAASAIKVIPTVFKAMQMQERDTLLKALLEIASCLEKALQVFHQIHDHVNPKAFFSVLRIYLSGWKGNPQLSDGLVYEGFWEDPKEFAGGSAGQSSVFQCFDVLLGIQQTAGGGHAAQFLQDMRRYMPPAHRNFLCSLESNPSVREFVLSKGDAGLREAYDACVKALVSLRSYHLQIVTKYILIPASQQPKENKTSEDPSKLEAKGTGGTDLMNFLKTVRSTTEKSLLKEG

IC50 [µM]	Compound
100 to 500	c1ccc(Cc2nc[nH]c2-c2ccccc2)cc1 [Compound 123, 4-benzyl-5-phenyl-1H-imidazole]
20 to 100	Clc1ccc(CNc2ccccc2-c2c[nH]cn2)cc1 [Compound 62, N-(4-chlorobenzyl)-2-(1H-imidazol-4-yl)aniline]
100 to 500	c1ccc(CCc2nc[nH]c2-c2ccccc2)cc1 [Compound 126, 4-phenethyl-5-phenyl-1H-imidazole]
< 20	Clc1cccc(CCOc2ccccc2-c2c[nH]cn2)c1 [Compound 33, 4-(2-(3-chlorophenethoxy)phenyl)-1H-imidazole]
20 to 100	c1ccc(CCn2cncc2-c2ccccc2)cc1 [Compound 81, 1-phenethyl-5-phenyl-1H-imidazole]
100 to 500	CCOC(=O)CCCn1cncc1-c1ccccc1 [Compound 121, ethyl 4-(5-phenyl-1H-imidazol-1-yl)butanoate]
20 to 100	Clc1ccc(COc2ccc(OCc3ccc(Cl)cc3)c(-c3c[nH]cn3)c2)cc1 [Compound 91, 4-(2,5-bis(4-chlorobenzyloxy)phenyl)-1H-imidazole]
20 to 100	CSc1ccccc1-c1c[nH]cn1 [Compound 1, 5-(2-(methylthio)phenyl)-1H-imidazole]
< 20	COc1cccc(O)c1-c1c[nH]cn1 [Compound 41, 2-(1H-imidazol-4-yl)-3-methoxyphenol]
